Test: Pharmacokinetics in beagles (Test Example 5)
Format: in vivo
Settings: plasma EPA, male beagles fasted, oral, 600 mg EPA-E, baseline-corrected
Description: The composition of Example 14 was orally administered to 6 male beagles (at the age of 2 to 6 years with the body weight of 13 kg, 3 Marshall beagles and 3 Nosan beagles) under fasting conditions, and blood EPA concentration was evaluated. The test animals had been fasted since 18 hours or more before the administration, and each animal was administered with the composition in an amount corresponding to 600 mg of the EPA-E. Blood was collected before the administration, and 0.5, 1, 1.5, 2, 3, 4, 6, 8, and 24 hours after the administration, and plasma was separated to measure plasma EPA concentration by LC/MS/MS (method in which a sample is isolated by liquid chromatography, then subjected to mass spectrometry to conduct separation and measurement thereon). The control group was administered with the EPA-E stock solution encapsulated in a capsule. […] In the calculation of each parameter, correction was made by subtracting the blood EPA concentration before the administration from the measured blood concentration.

- AUC0-2: 14.4 µg·h/mL
- AUC0-24: 188 µg·h/mL
- Cmax: 16600 ng/mL
Structure (SMILES): CC/C=C\C/C=C\C/C=C\C/C=C\C/C=C\CCCC(=O)OCC [EPA-E Stock solution, Ethyl eicosapentaenoate ester]

Reference: US9801843B2, “Self-emulsifying composition of ω3 fatty acid” (priority 2013, dated 2017)
